“Also recorded” adds a separate entry of the source.
Columns and labels:
SHP2 [1] = molecular target: T1, SHP2 (Homo sapiens, UniProt Q06124); assay: Active site protection by vanadate (jump-dilution assay); type: biochemical; conditions: role: inhibitor, 10 min, diluted 100-fold into 10 mM pNPP
T1 construct: 4× solution of SHP2 (residues 224-528)
T1 sequence (Q06124 224-528): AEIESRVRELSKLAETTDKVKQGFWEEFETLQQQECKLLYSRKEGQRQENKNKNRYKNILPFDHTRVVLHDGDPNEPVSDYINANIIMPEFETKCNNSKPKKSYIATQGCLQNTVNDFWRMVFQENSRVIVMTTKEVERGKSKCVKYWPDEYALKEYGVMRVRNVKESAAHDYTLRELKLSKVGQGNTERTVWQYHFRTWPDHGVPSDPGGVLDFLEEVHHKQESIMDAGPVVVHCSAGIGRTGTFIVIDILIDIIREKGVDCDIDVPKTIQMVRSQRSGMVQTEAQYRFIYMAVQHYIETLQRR
Experimental: To further support a covalent mechanism of action and engagement of the SHP2 active site, a jump-dilution assay was employed both in the presence and absence of the known reversible PTP active site competitive inhibitor vanadate (VO4) (Seiner, D. R. et al., Chem. Res. Toxicol. 2007, 20, 1315-1320) In this experiment, SHP2 was co-incubated with 100 μM compound (10) and 500 μM vanadate or DMSO for 10 minutes. The enzyme-inhibitor complex was then rapidly diluted 100-fold into a buffered solution containing 10 mM pNPP, and the absorbance at 405 nm was immediately monitored over time to determine the remaining enzymatic activity.
A solution containing 500 μM Vanadate or DMSO, 4 μM SHP2, and 100 μM (10) or DMSO in DMG buffer (with no EDTA) was added to a clear flat-bottom 96-well plate (Corning Costar Assay Plate #9017). This was allowed to incubate for 10 minutes at 25° C. before transferring 3 μL to a new clear flat-bottom 96-well plate (Corning Costar Assay Plate #9017). To each well was added 297 μL of 10.1 mM pNPP in DMG buffer (with EDTA) and the plate Plates were then read for absorbance at 405 nm using a CLARIOstar^Plus plate reader (BMG Labetch). Data was imported into Graphpad Prism 9 (GraphPad Software, San Diego, CA (US)), and a baseline correction analysis was completed for fitting purposes.

SHP2 (residues 224-528) = molecular target: T2, SHP2 (residues 224-528) (Homo sapiens, UniProt Q06124); assay: Kinetic characterization of SHP2 inactivation (pNPP cleavage progress curves, kobs, kinact/KI); type: biochemical
T2 construct: 4× solution of SHP2 (residues 224-528)
T2 sequence (Q06124 224-528): T1 sequence (Q06124 224-528)
From the text: Covalent inhibitors work by forming a covalent bond with a reactive functional group in the target enzyme. Consequently, the kinetics for enzyme inactivation by a covalent inhibitor is not an equilibrium process as with reversible inhibition. The potency of a reversible inhibitor can be measured by its IC50 value. Unlike reversible inhibitors, where inhibition is only concentration-dependent, covalent inhibitors show both time- and concentration-dependent target inhibition (a covalent bond formation is a time-dependent event). If sufficient time is available, covalent inhibitors can completely neutralize the target, rather than go to equilibrium. As a result, the potency and selectivity of a covalent inhibitor cannot be determined by IC50 values; instead, the rate of inactivation of the target (kinact) and the inhibition constant (KI) were determined. The bimolecular rate constant (kinact/KI), was chosen to rank the potency of covalent inhibitors (Ruddraraju et al., 2017, Molecular Biosystems 13(7), 1257-1279).
PTPs catalyze the dephosphorylation of tyrosine-phosphorylated protein substrates through a conserved mechanism that relies on a catalytic cysteine residue (Zhang, Z.-Y et al., 2003, Prog. Nucleic Acid Research Molecular Biology, 73, 171-220). This provides a mechanistic rationale for the assessment of electrophilic Michael acceptors, such as those synthesized in the present disclosure as potential covalent inhibitors of the SHP2. The enzymatic cleavage of para-nitrophenyl phosphate by SHP2 was measured over time in the presence of 100 μM inhibitor or DMSO, to determine the observed first-order rate constant (kobs). Based on kobs values, compounds were further evaluated in a dose-dependent manner to determine the second-order rate constant (kinact/KI) indicating the overall efficacy of the compounds, which was used to assess the structure-activity relationship (SAR) for the analogs of interest and design additional analogs (see Table 1). […] It has been known that modifications to the electronegativity of substituents proximal to electrophilic centers alter the reactivity of the electrophile.
The efficacy of covalent inhibitors can be broken down into the initial reversible binding of the compounds (KI), and the rate of covalent bond formation and enzyme inactivation (kinact). These two constants can be used individually, or as a ratio to determine the overall efficacy of the inhibitor's efficacy. To investigate the contribution to reversible binding compound (34) was evaluated, which lacks the carbonyl of the Michael acceptor to prevent the formation of a covalent adduct.
Inhibitors were evaluated for their ability to inhibit the reaction catalyzed by SHP2 using para-nitrophenyl phosphate (pNPP) as a substrate at pH 7 and 25° C. A 2× solution of inhibitor was diluted into DMG buffer (50 mM 3,3-dimethylglutarate pH 7.0, 1 mM EDTA, ionic strength adjusted to 150 mM using NaCl) was added to a clear flat-bottom 96-well plate (Corning Costar Assay Plate #9017), and serially diluted 1.5-fold, resulting in 100 μL volumes of varying inhibitor concentrations. To this was added a 4× solution of pNPP (12 mM) in DMG buffer. The reaction was initialized by the addition of a 4× solution of SHP2 (residues 224-528), resulting in a final solution of: inhibitor (100-0 μM), pNPP (3 mM), and SHP2 (100 nM). The plate was then monitored for a change in absorbance ab […] using a CLARIOstar^Plus plate reader (BMG Labetch) over the course of an hour. The resulting progress curves for each inhibitor were imported into Graphpad Prism 9 (GraphPad Software, San Diego, CA (USA)), and a baseline correction analysis was completed for fitting purposes. Each curve was fit to the equation Y=V0×(1−e^−kobs*t)/kobs.^[17.22] The kobs values were then plotted against inhibitor concentrations. If the resulting graph was linear, the kinact/KI value was determined by the slope of that line and the 95% confidence interval (95% CI). […]

SHP2 [2] = molecular target: T1, SHP2; assay: Covalent adduct formation on SHP2 by intact protein LC-MS; type: binding; conditions: 10 μM SHP2, 60 minutes
Experimental: To validate covalent modification of SHP2 by the active compounds, adduct formation on SHP2 was measured by intact protein liquid chromatography-mass spectrometry (LC-MS). With intact protein LC-MS, multiply charged states of the protein species can be deconvoluted to achieve the total mass(es). Compounds were incubated with 10 μM SHP2 for 60 minutes before being quenched with acetonitrile for LC-MS analysis by electrospray ionization (ESI) in positive mode. […] (33), and (42) (FIGS. 3A and 3B).
To unfold protein and quench protein-ligand reactivity, 10 μL of treated or untreated 10 μM SHP2 was diluted in 40 μL of 80% (v/v) formic acid initially, followed by 150 μL of LC-MS buffer (50/50 water/acetonitrile with 0.1% formic acid). 20-25 pmol per sample was analyzed by LC/MS (Agilent 1260 Infinity II with a ZORBAX Rapid Resolution High Definition 300 Å Stable Bond C3, 2.1×100 mm, 1.8 μm column) attached to an Agilent 6129 quadrupole mass spectrometer in positive ion mode. The column was held at 45° C. Mobile solution A was 0.1% formic acid in water, and mobile phase B was 0.1% formic acid in acetonitrile. The gradient used was hold at 10% B for 5 min, increase linearly to 80% B for 15 min, and then hold at 80% B for 5 min. The mass data were collected at a range of 600-1500 m/z. Raw data were processed using MestReNova. For all samples, the deconvoluted mass was calculated by taking the m/z range of 730-1100 Da, and deconvoluted mass range from 36500-37200 Da. An abundance threshold of 10% and tolerance of 30 ppm was set for deconvolution. Unreacted SHP2's total deconvoluted mass was 36602±10 Da; for each deconvolution, the highest deconvoluted mass intensity was utilized as the mass pivot point to determine and identify reacted SHP2 adducts. To calculate the percent SHP2 reacted, the relative abundance intensity of reacted SHP2 was divided by the total relative abundance intensities of unreacted and reacted SHP2.

kinact/KI (SHP2 (residues 224-528); pH 7, role: inhibitor, substrate pNPP 3 mM, 100 nM SHP2, pH 7.0, 25° C, read-out: kinact/KI (converted)) | fold increase in efficacy compared to PVSN (SHP2 (residues 224-528); role: inhibitor, kinact/KI relative to PVSN) | Found Ligand Adduct (mass shift) (SHP2 [2]; intact protein LC-MS) | % SHP2 Reacted (overall adduct formation) (SHP2 [2]; PVSN at 20 μM, compound 37 at 10 μM) | SMILES | SHP2 activity recovery after jump-dilution, vanadate alone (SHP2 [1]; 500 μM vanadate, compared to DMSO control) | residual SHP2 activity after jump-dilution (SHP2 [1]; 100 μM compound (10) alone) | residual SHP2 activity after jump-dilution with vanadate (SHP2 [1]; 100 μM compound (10) with 500 μM vanadate (competitive inhibitor))
 |  |  |  | [O]=[V]([O-])([O-])[O-] [vanadate, reference compound] | fully recovered activity |  | 
20.5 M⁻¹ s⁻¹ | approximately 6 fold | 206 Da | 34% | C=C1C(=O)[C@@]2(C(=O)OC)CC(=O)C[C@@H]1C2 [Compound 10] |  | negligible residual enzymatic activity; also recorded: Little residual activity was detected | substantial residual activity; also recorded: protected from inactivation

— US20260327239A1, “COMPOUNDS FOR COVALENT INHIBITION OF SHP2” (Purdue Research Foundation, priority 2023, published 2026)
